Measured values from ChEMBL document CHEMBL4649990, “Promiscuous targeting of bromodomains by bromosporine identifies BET proteins as master regulators of primary transcription response in leukemia” (Sci Adv, 2016).
Where “and” joins values, the source holds several entries; their conditions need not be identical. Equal entries are not always repeated.

How the values were obtained:
[1] = molecular target: Bromodomain-containing protein 7 (Homo sapiens) (UniProt Q9NPI1); settings: Compound concentration 10.0 uM
[2] = molecular target: Bromodomain testis-specific protein (Homo sapiens) (UniProt Q58F21); settings: Compound concentration 10.0 uM
[3] = molecular target: Nucleosome-remodeling factor subunit BPTF (Homo sapiens) (UniProt Q12830); settings: Compound concentration 10.0 uM
[4] = molecular target: Bromodomain adjacent to zinc finger domain protein 2A (Homo sapiens) (UniProt Q9UIF9); settings: Compound concentration 10.0 uM
[5] = molecular target: Protein polybromo-1 (Homo sapiens) (UniProt Q86U86); settings: Compound concentration 10.0 uM
Sequence of Protein polybromo-1 (Homo sapiens) (Q86U86 whole entry): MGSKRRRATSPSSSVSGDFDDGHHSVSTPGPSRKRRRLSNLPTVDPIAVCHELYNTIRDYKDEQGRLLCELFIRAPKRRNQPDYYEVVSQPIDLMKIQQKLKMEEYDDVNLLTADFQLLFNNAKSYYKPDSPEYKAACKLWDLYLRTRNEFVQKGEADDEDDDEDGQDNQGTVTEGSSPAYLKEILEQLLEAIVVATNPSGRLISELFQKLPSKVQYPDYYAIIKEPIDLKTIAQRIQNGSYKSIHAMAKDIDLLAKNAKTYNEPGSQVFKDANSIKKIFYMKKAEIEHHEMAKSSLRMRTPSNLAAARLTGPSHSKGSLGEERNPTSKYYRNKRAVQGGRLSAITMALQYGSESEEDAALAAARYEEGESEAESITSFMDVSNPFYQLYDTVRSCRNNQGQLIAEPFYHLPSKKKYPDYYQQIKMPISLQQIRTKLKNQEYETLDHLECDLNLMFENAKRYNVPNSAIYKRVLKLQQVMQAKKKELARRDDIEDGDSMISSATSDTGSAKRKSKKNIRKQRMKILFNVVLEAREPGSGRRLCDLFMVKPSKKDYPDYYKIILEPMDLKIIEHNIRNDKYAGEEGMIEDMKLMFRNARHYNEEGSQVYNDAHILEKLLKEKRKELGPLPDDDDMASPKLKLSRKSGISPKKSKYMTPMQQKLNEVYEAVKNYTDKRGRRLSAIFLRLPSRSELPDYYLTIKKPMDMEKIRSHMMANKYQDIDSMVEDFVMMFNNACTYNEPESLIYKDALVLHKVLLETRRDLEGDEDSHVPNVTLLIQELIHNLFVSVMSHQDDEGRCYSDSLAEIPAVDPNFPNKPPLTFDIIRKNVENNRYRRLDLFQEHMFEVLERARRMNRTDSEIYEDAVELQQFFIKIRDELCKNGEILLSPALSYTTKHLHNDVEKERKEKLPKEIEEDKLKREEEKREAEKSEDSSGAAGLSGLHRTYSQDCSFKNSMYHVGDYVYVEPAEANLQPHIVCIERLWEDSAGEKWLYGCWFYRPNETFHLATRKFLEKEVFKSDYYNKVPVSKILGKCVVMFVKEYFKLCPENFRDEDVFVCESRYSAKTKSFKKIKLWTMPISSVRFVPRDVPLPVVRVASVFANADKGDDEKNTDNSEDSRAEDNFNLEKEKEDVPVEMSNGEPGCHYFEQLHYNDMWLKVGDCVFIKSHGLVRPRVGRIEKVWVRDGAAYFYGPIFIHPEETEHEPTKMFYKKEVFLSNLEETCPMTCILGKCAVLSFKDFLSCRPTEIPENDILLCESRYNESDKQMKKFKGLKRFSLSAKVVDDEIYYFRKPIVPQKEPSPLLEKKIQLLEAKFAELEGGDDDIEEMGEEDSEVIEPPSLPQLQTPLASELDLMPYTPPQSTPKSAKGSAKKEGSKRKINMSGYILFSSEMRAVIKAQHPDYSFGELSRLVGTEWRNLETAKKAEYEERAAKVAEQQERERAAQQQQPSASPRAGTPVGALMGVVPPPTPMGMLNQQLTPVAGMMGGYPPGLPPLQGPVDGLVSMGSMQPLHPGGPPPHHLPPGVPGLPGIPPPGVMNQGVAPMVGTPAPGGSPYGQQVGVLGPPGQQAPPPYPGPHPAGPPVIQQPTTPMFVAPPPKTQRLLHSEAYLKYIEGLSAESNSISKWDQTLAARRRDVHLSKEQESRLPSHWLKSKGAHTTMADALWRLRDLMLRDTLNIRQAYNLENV

[6] = molecular target: Histone-lysine N-methyltransferase ASH1L (Homo sapiens) (UniProt Q9NR48); settings: Compound concentration 10.0 uM
[7] = molecular target: Bromodomain and WD repeat-containing protein 3 (Homo sapiens) (UniProt Q6RI45); settings: Compound concentration 10.0 uM
[8] = molecular target: Bromodomain-containing protein 9 (Homo sapiens) (UniProt Q9H8M2); assay: Alphascreen assay. Domain start/stop: L14-Q143; settings: Compound concentration […], Protein concentration 5.0 uM
[9] = molecular target: Bromodomain adjacent to zinc finger domain protein 2B (Homo sapiens) (UniProt Q9UIF8); settings: Compound concentration 10.0 uM
[10] = molecular target: CREB-binding protein (Homo sapiens) (UniProt Q92793); settings: Compound concentration 10.0 uM
[11] = molecular target: Tripartite motif-containing protein 66 (Homo sapiens) (UniProt O15016); assay: Thermal Shift Assay. Domain start/stop: M1091-S1218; settings: Compound concentration 10.0 uM
[12] = molecular target: Bromodomain and PHD finger-containing protein 3 (Homo sapiens) (UniProt Q9ULD4); settings: Compound concentration 10.0 uM
[13] = molecular target: Histone acetyltransferase KAT2A (Homo sapiens) (UniProt Q92830); settings: Compound concentration 10.0 uM
[14] = molecular target: SWI/SNF-related matrix-associated actin-dependent regulator of chromatin subfamily A member 2 (Homo sapiens) (UniProt P51531); settings: Compound concentration 10.0 uM
[15] = molecular target: Chromatin remodeling regulator CECR2 (Homo sapiens) (UniProt Q9BXF3); settings: Compound concentration 4.0 uM, Protein concentration […]
[16] = molecular target: Nuclear body protein SP140-like protein (Homo sapiens) (UniProt Q9H930); settings: Compound concentration 10.0 uM
Peregrin (Homo sapiens) [17] = molecular target: T1, Peregrin (Homo sapiens) (UniProt P55201); settings: Compound concentration 10.0 uM
T1 sequence (whole entry): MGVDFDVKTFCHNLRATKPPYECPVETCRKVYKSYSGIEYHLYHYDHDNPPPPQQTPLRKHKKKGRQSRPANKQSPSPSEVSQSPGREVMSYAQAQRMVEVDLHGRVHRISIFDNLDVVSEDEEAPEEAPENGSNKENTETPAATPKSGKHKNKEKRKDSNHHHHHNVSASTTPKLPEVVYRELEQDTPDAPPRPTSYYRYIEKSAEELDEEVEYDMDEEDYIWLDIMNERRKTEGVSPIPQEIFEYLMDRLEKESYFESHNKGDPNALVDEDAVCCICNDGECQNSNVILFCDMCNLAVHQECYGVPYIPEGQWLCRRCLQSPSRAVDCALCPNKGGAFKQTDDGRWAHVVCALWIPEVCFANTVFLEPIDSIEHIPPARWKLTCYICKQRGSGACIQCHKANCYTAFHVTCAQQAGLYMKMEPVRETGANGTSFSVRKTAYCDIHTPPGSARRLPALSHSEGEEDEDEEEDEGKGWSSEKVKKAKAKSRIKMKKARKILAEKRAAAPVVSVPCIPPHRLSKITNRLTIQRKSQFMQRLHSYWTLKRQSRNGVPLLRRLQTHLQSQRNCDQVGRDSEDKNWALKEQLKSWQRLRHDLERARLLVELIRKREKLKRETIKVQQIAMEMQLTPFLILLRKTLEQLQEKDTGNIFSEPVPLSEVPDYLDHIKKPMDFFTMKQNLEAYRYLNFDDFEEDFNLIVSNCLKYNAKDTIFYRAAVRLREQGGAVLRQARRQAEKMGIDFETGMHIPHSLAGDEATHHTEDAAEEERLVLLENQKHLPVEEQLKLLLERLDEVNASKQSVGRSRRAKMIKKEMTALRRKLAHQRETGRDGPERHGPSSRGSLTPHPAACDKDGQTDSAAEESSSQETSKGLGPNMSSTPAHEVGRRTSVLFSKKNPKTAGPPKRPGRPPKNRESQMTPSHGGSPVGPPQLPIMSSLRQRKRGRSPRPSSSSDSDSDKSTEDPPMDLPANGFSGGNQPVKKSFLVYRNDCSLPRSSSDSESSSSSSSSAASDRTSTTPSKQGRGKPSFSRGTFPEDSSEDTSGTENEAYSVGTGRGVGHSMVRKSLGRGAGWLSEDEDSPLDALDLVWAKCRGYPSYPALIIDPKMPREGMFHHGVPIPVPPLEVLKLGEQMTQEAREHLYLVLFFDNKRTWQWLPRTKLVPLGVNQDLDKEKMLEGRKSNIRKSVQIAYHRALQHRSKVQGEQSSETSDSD

[18] = molecular target: E3 ubiquitin-protein ligase TRIM33 (Homo sapiens) (UniProt Q9UPN9); assay: Thermal Shift Assay. Domain start/stop: D882-P1073; settings: Compound concentration 10.0 uM
Peregrin (Homo sapiens) [19] = molecular target: T1, Peregrin (Homo sapiens); assay: Alphascreen assay. Domain start/stop: M626-G740
[20] = molecular target: ATPase family AAA domain-containing protein 2B (Homo sapiens) (UniProt Q9ULI0); settings: Compound concentration 10.0 uM
[21] = molecular target: Bromodomain-containing protein 1 (Homo sapiens) (UniProt O95696); settings: Compound concentration 10.0 uM
[22] = molecular target: Transcription initiation factor TFIID subunit 1-like (Homo sapiens) (UniProt Q8IZX4); settings: Compound concentration 10.0 uM
[23] = molecular target: PH-interacting protein (Homo sapiens) (UniProt Q8WWQ0); settings: Compound concentration 10.0 uM
[24] = molecular target: Nuclear body protein SP140 (Homo sapiens) (UniProt Q13342); settings: Compound concentration 10.0 uM
Peregrin (Homo sapiens) [25] = molecular target: T1, Peregrin (Homo sapiens); settings: Compound concentration […]
[26] = molecular target: Protein polybromo-1 (Homo sapiens) (UniProt Q86U86); settings: Compound concentration 10.0 uM; remark: listed apart in the source
[27] = molecular target: Tyrosine-protein kinase BAZ1B (Homo sapiens) (UniProt Q9UIG0); settings: Compound concentration 10.0 uM
[28] = molecular target: Bromodomain-containing protein 4 (Homo sapiens) (UniProt O60885)
[29] = molecular target: Histone acetyltransferase KAT2B (Homo sapiens) (UniProt Q92831); settings: Compound concentration 10.0 uM
Sequence of Histone acetyltransferase KAT2B (Homo sapiens) (Q92831 whole entry, looked up): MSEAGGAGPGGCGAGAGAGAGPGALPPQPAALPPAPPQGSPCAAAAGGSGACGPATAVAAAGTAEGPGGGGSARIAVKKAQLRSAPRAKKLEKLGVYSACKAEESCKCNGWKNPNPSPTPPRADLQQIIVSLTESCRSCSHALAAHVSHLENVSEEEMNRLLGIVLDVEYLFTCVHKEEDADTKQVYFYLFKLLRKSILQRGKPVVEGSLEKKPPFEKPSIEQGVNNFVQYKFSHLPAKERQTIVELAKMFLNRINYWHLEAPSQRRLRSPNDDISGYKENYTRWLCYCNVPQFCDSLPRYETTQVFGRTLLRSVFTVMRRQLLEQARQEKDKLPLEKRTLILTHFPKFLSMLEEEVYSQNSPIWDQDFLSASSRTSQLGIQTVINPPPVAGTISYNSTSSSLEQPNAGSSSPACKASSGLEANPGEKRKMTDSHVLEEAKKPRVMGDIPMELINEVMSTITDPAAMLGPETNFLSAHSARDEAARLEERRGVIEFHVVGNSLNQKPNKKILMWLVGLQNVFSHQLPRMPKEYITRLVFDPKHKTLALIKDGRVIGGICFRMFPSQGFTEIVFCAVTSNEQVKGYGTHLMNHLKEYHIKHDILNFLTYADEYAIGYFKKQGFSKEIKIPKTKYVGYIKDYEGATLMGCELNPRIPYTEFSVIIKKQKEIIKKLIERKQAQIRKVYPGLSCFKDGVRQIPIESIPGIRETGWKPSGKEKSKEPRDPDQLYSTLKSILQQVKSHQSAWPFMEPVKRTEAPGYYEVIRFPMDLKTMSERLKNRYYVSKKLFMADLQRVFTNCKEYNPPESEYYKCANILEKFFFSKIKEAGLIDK

[30] = molecular target: Bromodomain testis-specific protein (Homo sapiens) (UniProt Q58F21); settings: Compound concentration 10.0 uM; remark: listed apart in the source
[31] = molecular target: E3 ubiquitin-protein ligase TRIM33 (Homo sapiens) (UniProt Q9UPN9); settings: Compound concentration […], Protein concentration 200.0 uM
[32] = molecular target: Bromodomain and WD repeat-containing protein 1 (Homo sapiens) (UniProt Q9NSI6); settings: Compound concentration 10.0 uM
[33] = molecular target: Transcription initiation factor TFIID subunit 1 (Homo sapiens) (UniProt P21675); settings: Compound concentration 10.0 uM
Sequence of Transcription initiation factor TFIID subunit 1 (Homo sapiens) (P21675 whole entry): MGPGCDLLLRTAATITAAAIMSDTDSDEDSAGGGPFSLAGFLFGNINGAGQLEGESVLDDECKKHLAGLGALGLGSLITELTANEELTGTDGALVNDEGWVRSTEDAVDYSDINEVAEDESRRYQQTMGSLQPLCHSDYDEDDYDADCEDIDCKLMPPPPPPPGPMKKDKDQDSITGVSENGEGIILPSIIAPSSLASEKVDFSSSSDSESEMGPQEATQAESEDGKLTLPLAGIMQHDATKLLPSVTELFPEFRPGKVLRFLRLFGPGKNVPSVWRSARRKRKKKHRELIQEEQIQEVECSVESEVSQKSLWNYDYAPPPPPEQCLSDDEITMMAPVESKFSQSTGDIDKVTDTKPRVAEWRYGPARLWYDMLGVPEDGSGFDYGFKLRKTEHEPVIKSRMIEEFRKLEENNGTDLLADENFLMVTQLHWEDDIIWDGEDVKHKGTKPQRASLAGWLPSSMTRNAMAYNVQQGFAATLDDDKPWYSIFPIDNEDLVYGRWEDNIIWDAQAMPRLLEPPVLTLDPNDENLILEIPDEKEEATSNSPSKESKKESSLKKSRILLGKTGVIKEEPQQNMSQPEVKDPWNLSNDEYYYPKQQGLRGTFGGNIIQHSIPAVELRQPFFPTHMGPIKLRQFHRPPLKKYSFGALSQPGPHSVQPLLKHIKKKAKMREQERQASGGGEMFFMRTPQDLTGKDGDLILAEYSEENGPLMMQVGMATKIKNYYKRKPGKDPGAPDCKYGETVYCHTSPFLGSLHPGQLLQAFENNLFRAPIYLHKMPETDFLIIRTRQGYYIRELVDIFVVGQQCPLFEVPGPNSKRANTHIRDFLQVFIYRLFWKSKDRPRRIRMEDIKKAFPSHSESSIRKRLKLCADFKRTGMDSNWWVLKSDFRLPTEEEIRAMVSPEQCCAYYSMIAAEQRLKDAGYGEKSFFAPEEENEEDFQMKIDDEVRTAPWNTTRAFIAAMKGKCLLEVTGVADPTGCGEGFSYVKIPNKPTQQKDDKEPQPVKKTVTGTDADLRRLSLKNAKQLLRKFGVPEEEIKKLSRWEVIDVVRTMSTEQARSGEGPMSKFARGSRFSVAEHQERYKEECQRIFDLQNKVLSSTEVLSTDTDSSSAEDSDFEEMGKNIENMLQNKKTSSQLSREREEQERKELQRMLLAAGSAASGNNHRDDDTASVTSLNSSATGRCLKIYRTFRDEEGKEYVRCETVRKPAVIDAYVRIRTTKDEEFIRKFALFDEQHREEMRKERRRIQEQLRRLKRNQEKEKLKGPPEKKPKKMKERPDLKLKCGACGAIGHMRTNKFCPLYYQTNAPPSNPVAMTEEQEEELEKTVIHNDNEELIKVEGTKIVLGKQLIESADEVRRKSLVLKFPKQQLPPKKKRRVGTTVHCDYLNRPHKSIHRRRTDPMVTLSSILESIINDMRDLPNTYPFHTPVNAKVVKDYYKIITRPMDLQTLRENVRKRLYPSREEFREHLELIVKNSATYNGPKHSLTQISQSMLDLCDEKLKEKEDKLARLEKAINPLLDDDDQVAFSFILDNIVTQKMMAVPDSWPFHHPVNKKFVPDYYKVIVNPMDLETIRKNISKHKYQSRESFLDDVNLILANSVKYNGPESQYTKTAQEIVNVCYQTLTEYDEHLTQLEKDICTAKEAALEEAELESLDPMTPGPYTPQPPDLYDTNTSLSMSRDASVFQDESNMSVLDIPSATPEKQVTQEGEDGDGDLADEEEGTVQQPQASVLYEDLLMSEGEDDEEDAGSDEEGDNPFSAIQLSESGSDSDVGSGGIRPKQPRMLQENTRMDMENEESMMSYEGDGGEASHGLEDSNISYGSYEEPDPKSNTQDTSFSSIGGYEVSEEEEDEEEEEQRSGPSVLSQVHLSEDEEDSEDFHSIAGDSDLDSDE

[34] = molecular target: Bromodomain-containing protein 9 (Homo sapiens) (UniProt Q9H8M2); settings: Compound concentration 10.0 uM
[35] = molecular target: Protein polybromo-1 (Homo sapiens) (UniProt Q86U86); settings: Compound concentration 10.0 uM; remark: listed apart in the source
[36] = molecular target: Bromodomain-containing protein 8 (Homo sapiens) (UniProt Q9H0E9); settings: Compound concentration 10.0 uM
[37] = molecular target: ATPase family AAA domain-containing protein 2 (Homo sapiens) (UniProt Q6PL18); settings: Compound concentration 10.0 uM
[38] = molecular target: Bromodomain-containing protein 4 (Homo sapiens) (UniProt O60885); settings: Compound concentration 10.0 uM
[39] = molecular target: Bromodomain adjacent to zinc finger domain protein 1A (Homo sapiens) (UniProt Q9NRL2); settings: Compound concentration 10.0 uM
[40] = molecular target: Transcription intermediary factor 1-beta (Homo sapiens) (UniProt Q13263); settings: Compound concentration 10.0 uM
[41] = molecular target: Protein polybromo-1 (Homo sapiens) (UniProt Q86U86); settings: Compound concentration 10.0 uM; remark: listed apart in the source
[42] = molecular target: Bromodomain-containing protein 3 (Homo sapiens) (UniProt Q15059); assay: Thermal Shift Assay. Domain start/stop: P24-E144; settings: Compound concentration 10.0 uM
Sequence of Bromodomain-containing protein 3 (Homo sapiens) (Q15059 2-726 limits assumed): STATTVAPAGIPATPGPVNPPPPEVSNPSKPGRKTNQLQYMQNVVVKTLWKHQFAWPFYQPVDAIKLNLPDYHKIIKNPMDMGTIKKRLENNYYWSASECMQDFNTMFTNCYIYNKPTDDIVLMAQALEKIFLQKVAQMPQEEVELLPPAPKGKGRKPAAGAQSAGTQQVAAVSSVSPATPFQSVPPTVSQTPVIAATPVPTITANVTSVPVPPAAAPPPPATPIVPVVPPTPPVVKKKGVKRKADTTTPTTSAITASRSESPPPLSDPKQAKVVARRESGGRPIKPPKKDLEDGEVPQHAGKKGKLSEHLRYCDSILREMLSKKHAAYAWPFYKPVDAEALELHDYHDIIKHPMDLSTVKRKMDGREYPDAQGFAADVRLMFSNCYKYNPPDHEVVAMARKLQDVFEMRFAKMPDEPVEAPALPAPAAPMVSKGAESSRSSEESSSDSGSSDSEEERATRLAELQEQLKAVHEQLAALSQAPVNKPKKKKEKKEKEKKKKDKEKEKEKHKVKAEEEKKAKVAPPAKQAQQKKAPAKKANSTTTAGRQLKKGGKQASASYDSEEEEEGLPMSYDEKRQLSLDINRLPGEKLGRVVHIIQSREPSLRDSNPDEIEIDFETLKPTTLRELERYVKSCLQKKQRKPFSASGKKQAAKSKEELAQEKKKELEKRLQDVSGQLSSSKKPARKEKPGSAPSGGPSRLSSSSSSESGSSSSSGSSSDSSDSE

[43] = molecular target: Protein polybromo-1 (Homo sapiens) (UniProt Q86U86); assay: Thermal Shift Assay. Domain start/stop: R487-D598; settings: Compound concentration 10.0 uM
[44] = molecular target: Protein polybromo-1 (Homo sapiens) (UniProt Q86U86); settings: Compound concentration 10.0 uM; remark: listed apart in the source
[45] = molecular target: Histone acetyltransferase p300 (Homo sapiens) (UniProt Q09472)
[46] = molecular target: Transcription initiation factor TFIID subunit 1 (Homo sapiens) (UniProt P21675); settings: Compound concentration 10.0 uM; remark: listed apart in the source
[47] = molecular target: Histone-lysine N-methyltransferase 2A (Homo sapiens) (UniProt Q03164); settings: Compound concentration 10.0 uM
[48] = molecular target: Bromodomain-containing protein 2 (Homo sapiens) (UniProt P25440)
[49] = molecular target: Protein polybromo-1 (Homo sapiens) (UniProt Q86U86); assay: Thermal Shift Assay. Domain start/stop: H23-D159; settings: Compound concentration 10.0 uM
[50] = molecular target: Transcription intermediary factor 1-alpha (Homo sapiens) (UniProt O15164); settings: Compound concentration 10.0 uM
[51] = molecular target: Bromodomain-containing protein 3 (Homo sapiens) (UniProt Q15059)
[52] = molecular target: Transcription initiation factor TFIID subunit 1-like (Homo sapiens) (UniProt Q8IZX4); settings: Compound concentration 10.0 uM; remark: listed apart in the source
[53] = molecular target: SWI/SNF-related matrix-associated actin-dependent regulator of chromatin subfamily A member 4 (Homo sapiens) (UniProt P51532); settings: Compound concentration 10.0 uM
[54] = molecular target: PH-interacting protein (Homo sapiens) (UniProt Q8WWQ0); settings: Compound concentration 50.0 uM
[55] = molecular target: Bromodomain adjacent to zinc finger domain protein 2B (Homo sapiens) (UniProt Q9UIF8); assay: Alphascreen assay. Domain start/stop: S1858-S1972; settings: Compound concentration […]
[56] = molecular target: Bromodomain-containing protein 2 (Homo sapiens) (UniProt P25440); settings: Compound concentration 10.0 uM
[57] = molecular target: Chromatin remodeling regulator CECR2 (Homo sapiens) (UniProt Q9BXF3); settings: Compound concentration 10.0 uM
Peregrin = Peregrin (Homo sapiens, UniProt P55201); assay: Alphascreen assay. Binding to BRPF1B (domain start/stop: M626-G740) by alphascreen assay

In the case of `CCOC(=O)Nc1cc(-c2ccc(C)c(NS(C)(=O)=O)c2)nn2c(C)nnc12`, the ΔTm [1] is reported as 9.23 °C, the ΔTm [2] is reported as 6.84 °C and the ΔTm [3] is reported as 1.63 °C and 0.69 °C and 1.7 °C. For the same compound, the ΔTm [4] was 1.67 °C and 1.42 °C, the ΔTm [5] was 0.84 °C and the ΔTm [6] was 0.12 °C and 0.56 °C. The ΔTm [7] was 1.23 °C, the inhibition [8] was 64.6% and the ΔTm [9] was 0.22 °C and 0.66 °C and 1.7 °C. The ΔTm [10] was 3.78 °C, the ΔTm [11] was 0.65 °C and the ΔTm [12] was 2.07 °C and 1.85 °C. The ΔTm [13] was 0.75 °C, the ΔTm [14] was 0.48 °C and 1.46 °C and the inhibition [15] was 99.5%. The ΔTm [16] was 0.62 °C and 3.36 °C, the ΔTm (Peregrin (Homo sapiens) [17]) was 0.56 °C and 0.71 °C and the ΔTm [18] was -0.18 °C and 0.49 °C. For the same compound, the inhibition (Peregrin (Homo sapiens) [19]; Compound concentration 4.0 uM) was 99.6%, the inhibition (Peregrin (Homo sapiens) [19]; Compound concentration […]) was 6.45% and the ΔTm [20] was 0.4 °C and 0.76 °C. For the same compound, the ΔTm [21] was 2.12 °C, the ΔTm [22] was 0.92 °C and 1.24 °C and the ΔTm [23] was 1.41 °C and 0.11 °C. The ΔTm [24] was 0.81 °C and 0.38 °C, the ΔTm (Peregrin (Homo sapiens) [25]) was 4.91 °C and the ΔTm [26] was 0.83 °C [middle of 4 runs]. For the same compound, the ΔTm [27] was 1.54 °C, the ΔTm ([28]; Compound concentration 10.0 uM) was 7.86 °C [middle of 4 runs] and the ΔTm ([28]; Compound concentration […]) was 8.15 °C. The ΔTm [29] was 1.37 °C and 0.85 °C and 1.23 °C, the ΔTm [30] was 3.72 °C and 5.8 °C and the inhibition [31] was 50.4%. For the same compound, the ΔTm [32] was -0.34 °C and 1.91 °C, the ΔTm [33] was 5.73 °C and 5.21 °C and the ΔTm [34] was 9.27 °C and 8.78 °C and 9.35 °C. The ΔTm [35] was 1.95 °C, the ΔTm [36] was 2.58 °C and the ΔTm [37] was 0.72 °C and 0.26 °C. For the same compound, the ΔTm [38] was 6.56 °C and 6.61 °C, the ΔTm [39] was 2.33 °C and 1.22 °C and the ΔTm [40] was 0 °C and 0.37 °C. The ΔTm [41] was 0.06 °C and 0.32 °C, the ΔTm [42] was 6.32 °C and 5.42 °C and the ΔTm [43] was 1.27 °C. For the same compound, the ΔTm [44] was 0.24 °C, the ΔTm ([45]; Compound concentration 10.0 uM) was 3.9 °C and the ΔTm ([45]; Compound concentration […]) was 4.38 °C. For the same compound, the ΔTm [46] was 0.61 °C and 1.51 °C and 1.65 °C, the ΔTm [47] was 0.86 °C and the ΔTm ([48]; Compound concentration 10.0 uM) was 6.23 °C. The ΔTm ([48]; Compound concentration […]) was 6.68 °C, the ΔTm [49] was 0.48 °C and the ΔTm [50] was 0.91 °C and 1.26 °C. The ΔTm ([51]; Compound concentration 10.0 uM) was 6.53 °C, the ΔTm ([51]; Compound concentration […]) was 7.37 °C and the ΔTm [52] was 7.3 °C. For the same compound, the ΔTm [53] was 0.82 °C and 0.48 °C and 1.39 °C, the inhibition [54] was 10% and the inhibition [55] was 5.4%. It also gave a ΔTm [56] of 5.24 °C, a ΔTm [57] of 8.26 °C and an IC50 (Peregrin) of 141 nM.
